The test system of one data set is HFF cells. In words: Cytotoxicity assay (CCK-8). It is filed as cell-based, Human. Here is the method:
In brief, HFFs (1 × 10^4 cells/well) were seeded in 96-well plates in a monolayer and incubated with different concentrations of the compounds in DMEM with 1% FBS; DMEM without compound was used as a control. After 24 h, CCK-8 solution (Biomake, United States) was added, and absorbance was measured at 450 nm using a Multiskan GO instrument (Thermo Fisher Scientific, MA, United States). The cell viability values are expressed as percentages of the control value (considered as 100% survival). […] Triplicate independent experiments were performed.

The subject of data set [1] is T. gondii tachyzoites (strain RH) in HFFs. In words: In vitro screening of anti-T. gondii activity (Giemsa staining, qPCR). Format: cell-based, Toxoplasma gondii. The following applies: 24 h; for inhibition at 20 µg/mL: 20 μg/mL. How it is done: Human foreskin fibroblasts were seeded in 6-well plates and infected with 3 × 10^4 fresh T. gondii tachyzoites. After 8 h, the natural compounds in DMEM supplemented with 1% FBS were added. Sulfadiazine and pyrimethamine were included as positive drug controls. After incubation for 24 h, the cells were washed twice with PBS, stained with Giemsa, and observed by light microscopy. In addition, total DNA was isolated from the cells using DNAiso Reagent (Takara), and a 529-bp repeat element was amplified by quantitative polymerase chain reaction (qPCR) with the following primers: Tox-F (5′-AGGAGAGATATCAGGACTGTAG-3′), Tox-R (5′-GCGTCGTCTCGTCTAGATCG-3′), and the Taqman probe Tox-TP (6-Fam CCGGCTTGGCTGCTTTTCCT BHQ1), as described in a previous study ([Zhang J.L. et al., 2019]). The inhibition rates against T. gondii proliferation for the natural compounds at concentrations with no HFF toxicity were calculated, and the inhibition rate in each treatment group was presented as the % of the control group. The experiment was repeated three times.

Data set [2] concerns T. gondii tachyzoite intracellular proliferation in HFFs. In words: Anti-proliferation activity of licarin-B (qPCR). It is filed as cell-based, Toxoplasma gondii. The following applies: Toxoplasma gondii, 0.4 μg/mL, 24 h. Here is the method:
DMEM without drugs was used as a parasite control. […] After 24 h, the cells were washed twice with PBS, and total genomic DNA from the cells was obtained as described in a previous study ([Zhang J.L. et al., 2019]). […] The results represent the means ± standard deviations (SD) from at least three independent experiments. The EC50 of licarin-B for tachyzoite growth inhibition was plotted as a function of the compound concentration via non-linear curve analysis using SPSS 19.0 software (SPSS Inc., Chicago, IL, United States). The results of the anti-invasion and anti-proliferation tests, the in vivo assays of the survival rate and parasite burden and data comparisons between the parasite control and treatment groups were statistically analyzed by one-way analysis of variance (ANOVA) using SPSS software.
(Real-time PCR tracks product formation cycle by cycle.)

Data set [3] deals with T. gondii invasion of HFFs. The data set can be described thus: Anti-invasion assessment in vitro (qPCR). It is filed as cell-based, Toxoplasma gondii. The following applies: Toxoplasma gondii, 0.4 μg/mL, 2 h of infection, read-out: Anti-invasion inhibition rate. Here is the method:
Human foreskin fibroblasts were seeded in 6-well plates and incubated with different concentrations of licarin-B (4.5, 9, 13.5, 18, or 22.5 μg/mL), sulfadiazine (0.4 μg/mL, as a positive control) or without drugs in DMEM supplemented with 1% FBS and then infected with 3 × 10^6 fresh parasites per well. The anti-invasion capability of licarin-B was determined by qPCR after 2 h of infection, as described in a previous study ([Zhang J.L. et al., 2019]). Triplicate independent experiments were performed.

The mark [4] stands for this setting: 80 μg/mL, T. gondii proliferation in HFFs.
[5] abbreviates: Toxoplasma gondii, 4 μg/mL, T. gondii proliferation in HFFs, read-out: Mean inhibition rate (% of control).
[6] abbreviates: Toxoplasma gondii, read-out: Mean inhibition rate (% of control).
[7] abbreviates: Toxoplasma gondii, T. gondii proliferation in HFFs, read-out: Mean inhibition rate (% of control).

Read-outs that look alike come from different tables or passages of the source.

As usually defined, the inhibition is the percentage by which the read-out fell short of the control.

With `O=C(/C=C/c1ccc(O)c(O)c1)O[C@@H]1C[C@](O)(C(=O)O)C[C@@H](O)[C@H]1O` [Chlorogenic acid, chlorogenic acid], the “Natural compound concentration range with no toxicity to HFF cells” value in the data set on HFF cells (human, 24 h) was 0.01 to 400 µg/mL. The inhibition at 400 µg/mL in data set [1] (Toxoplasma gondii, 400 μg/mL, T. gondii proliferation in HFFs, read-out: Mean inhibition rate (% of control)) turned out to be 34.6 ± 2.77%. In the case of `O=C(O)[C@H](O)c1ccccc1` [D-mandelic acid], the “Natural compound concentration range with no toxicity to HFF cells” value in the data set with HFF cells (CCK-8, 24 h, DMEM with 1% FBS) lay in the range of 0.01 to 80 µg/mL. Moreover, the “Mean inhibition rate (% of control)” value in data set [1] (setting [4]) is listed as 9.30 ± 3.76%. As for `C/C=C/c1cc(OC)c2c(c1)C(C)C(c1ccc(O)c(OC)c1)O2` (stereo not drawn) [Dehydrodiisoeugenol, dehydrodiisoeugenol], in data set [1] (setting [4]), the “Mean inhibition rate (% of control)” value stood at 8.14 ± 2.15%. For the molecule `COc1cc(O)ccc1/C=C/C(=O)c1ccc(O)cc1` [Echinatin, echinatin], in the data set with HFF cells (CCK-8, 24 h, DMEM with 1% FBS), the “Natural compound concentration range with no toxicity to HFF cells” value was in the range of 0.01 to 4 µg/mL. Further, the inhibition at 4 µg/mL in data set [1] (setting [5]) was determined as 63.1 ± 10.7%. As for `O=c1c(-c2ccc(O)cc2)coc2cc(O)cc(O)c12` [Genistein, genistein], in the data set with HFF cells (CCK-8, 24 h, DMEM with 1% FBS), the “Natural compound concentration range with no toxicity to HFF cells” value was 0.01 to 40 µg/mL. The inhibition at 40 µg/mL in data set [1] (setting [6]) was 22.3 ± 5.91%.

`O=c1c(-c2ccc(O)cc2)coc2cc(O[C@@H]3O[C@H](CO)[C@@H](O)[C@H](O)[C@H]3O)cc(O)c12` [Genistin, genistin]: in the data set on HFF cells (CCK-8, 24 h, DMEM with 1% FBS), the “Natural compound concentration range with no toxicity to HFF cells” value fell in the range of 0.01 to 32 µg/mL. For the same molecule, in data set [1] (Toxoplasma gondii, 32 μg/mL, T. gondii proliferation in HFFs, read-out: Mean inhibition rate (% of control)), the inhibition at 32 µg/mL is 26.3 ± 3.54%. Regarding `COc1cc2c(=O)c(-c3ccc(O)cc3)coc2cc1O` [Glycitein, glycitein], the “Natural compound concentration range with no toxicity to HFF cells” value in the data set with HFF cells (CCK-8, 24 h, DMEM with 1% FBS) was in the range of 0.01 to 40 µg/mL. Further, in data set [1] (Toxoplasma gondii, 40 μg/mL, T. gondii proliferation in HFFs, read-out: Mean inhibition rate (% of control)), the inhibition at 40 µg/mL was 8.11 ± 2.19%. Consider `O=C(/C=C/c1ccc(O)cc1)c1ccc(O)cc1O` [Isoliquiritigenin, isoliquiritigenin], for which the “Natural compound concentration range with no toxicity to HFF cells” value in the data set on HFF cells (human, 24 h) was in the range of 0.01 to 4 µg/mL. For the same molecule, the inhibition at 4 µg/mL in data set [1] (setting [5]) came to 42.8 ± 7.92%. Take `O=C(O)[C@@H](O)c1ccccc1` [L-mandelic acid]: in the data set on HFF cells (CCK-8, 24 h, DMEM with 1% FBS), the “Natural compound concentration range with no toxicity to HFF cells” value was in the range of 0.01 to 80 µg/mL. Further, the “Mean inhibition rate (% of control)” value in data set [1] (setting [4]) is 11.87 ± 2.84%. For the molecule `COc1c(/C=C/C(=O)c2ccc(O)cc2)ccc(O)c1O` [Licochalcone B], the “Mean inhibition rate (% of control)” value in data set [1] (16 μg/mL, T. gondii proliferation in HFFs) is reported as 51.67 ± 6.71%. Take `COc1c(/C=C/C(=O)c2ccc(O)cc2)ccc(O)c1CC=C(C)C` [Licochalcone C, licochalcone C]: in data set [1] (4 μg/mL, T. gondii proliferation in HFFs), the “Mean inhibition rate (% of control)” value is given as 54.91 ± 4.85%. Consider `CC1(C)O[C@H]2CC(=O)OC[C@]23[C@H]2CC[C@@]4(C)[C@H](c5ccoc5)OC(=O)[C@H]5O[C@]54[C@]2(C)C(=O)C[C@@H]13` [Limonin, limonin], for which, in the data set with HFF cells (human, 24 h), the “Natural compound concentration range with no toxicity to HFF cells” value fell in the range of 0.01 to 80 µg/mL. Besides, in data set [1] (Toxoplasma gondii, 80 μg/mL, T. gondii proliferation in HFFs, read-out: Mean inhibition rate (% of control)), the inhibition at 80 µg/mL was 72.2 ± 9.78%.

For the molecule `CC1(C)CC[C@]2(C(=O)O)CC[C@]3(C)C(=CC[C@@H]4[C@@]5(C)C[C@@H](O)[C@H](O)C(C)(C)[C@@H]5CC[C@]43C)[C@@H]2C1` [Maslinic acid, maslinic acid], the “Natural compound concentration range with no toxicity to HFF cells” value with HFF cells (CCK-8, 24 h, DMEM with 1% FBS) was in the range of 0.01 to 4 µg/mL. The inhibition at 4 µg/mL in data set [1] (setting [6]) is 65.4 ± 4.53%. Regarding `CCCCCCCCCCCCCC(=O)OC` [Methyl myristate, methyl myristate], the “Natural compound concentration range with no toxicity to HFF cells” value in the data set with HFF cells (human, 24 h) was in the range of 0.01 to 160 µg/mL. The inhibition at 160 µg/mL in data set [1] (Toxoplasma gondii, 160 μg/mL, T. gondii proliferation in HFFs, read-out: Mean inhibition rate (% of control)) is 7.65 ± 2.64%. For `CCCCCCCCCCCCCC(=O)O` [Myristic acid, myristic acid], the “Natural compound concentration range with no toxicity to HFF cells” value in the data set with HFF cells (CCK-8, 24 h, DMEM with 1% FBS) fell in the range of 0.01 to 20 µg/mL. Further, the inhibition at 20 µg/mL in data set [1] (setting [7]) turned out to be 26.3 ± 1.32%. Take `C=CCc1cc(OC)c2c(c1)OCO2` [Myristicin, myristicin]: the “Natural compound concentration range with no toxicity to HFF cells” value with HFF cells (CCK-8, 24 h, DMEM with 1% FBS) was 0.01 to 40 µg/mL. For the same molecule, the inhibition at 40 µg/mL in data set [1] (setting [6]) stood at 22.3 ± 3.46%. For the molecule `CC1=CC(=O)C(C(C)C)CC1` (stereo not drawn) [Piperitone, piperitone], the “Natural compound concentration range with no toxicity to HFF cells” value in the data set on HFF cells (human, 24 h) lay within 0.01 to 20 µg/mL. The inhibition at 20 µg/mL in data set [1] (setting [7]) was found to be 31.1 ± 1.97%.

Turning to `Nc1ccc(S(=O)(=O)Nc2ncccn2)cc1` [Sulfadiazine, reference compound], the inhibition at 0.4 µg/mL in data set [2] turned out to be 40.8%; in data set [3], 56.5%.

Turning to `Cc1ccc(C(C)C)c(O)c1` [Thymol, thymol], the “Natural compound concentration range with no toxicity to HFF cells” value in the data set with HFF cells (human, 24 h) was in the range of 0.01 to 16 µg/mL. Also, the inhibition at 16 µg/mL in data set [1] (Toxoplasma gondii, 16 μg/mL, T. gondii proliferation in HFFs, read-out: Mean inhibition rate (% of control)) is 25.7 ± 2.31%. Turning to licorice glycosides, in data set [1] (setting [4]), the “Mean inhibition rate (% of control)” value is listed as 35.93 ± 4.78%.

The record behind these values is PMC8226262, “Licarin-B Exhibits Activity Against the Toxoplasma gondii RH Strain by Damaging Mitochondria and Activating Autophagy” (Frontiers in Cell and Developmental Biology, 2021).
